Molecules are shown by their SMILES. Converted amounts (≈) assume the structure as drawn. The source made the active and inactive calls. The rule behind the calls is not given here.

In experiment [1] the test system is Pseudomonas aeruginosa. In words: Antimicrobial activity against Pseudomonas aeruginosa ATCC 15442 at 20 ug by disk diffusion method. The class given is functional, organism-based.
Experiment [2] concerns Staphylococcus aureus. In words: Antimicrobial activity against Staphylococcus aureus ATCC 6538 at 20 ug by disk diffusion method. The class given is functional, organism-based.
In experiment [3] the test system is Enterococcus hirae. Description: Antimicrobial activity against Enterococcus hirae ATCC 10541 at 20 ug by disk diffusion method. The experiment is classed as functional, organism-based. A general note: In agar diffusion tests the substance spreads into inoculated agar from a disc or well.
The subject of experiment [4] is Candida tropicalis. Description: Antimicrobial activity against Candida tropicalis IP 2031 at 20 ug by disk diffusion method. The experiment is classed as functional. As to conditions: read-out: IZ.
The test system of experiment [5] is Escherichia coli. Description: Antimicrobial activity against Escherichia coli ATCC 10536 at 20 ug by disk diffusion method. The class given is functional, organism-based.
Experiment [6] relates to Candida albicans. Description: Antimicrobial activity against Candida albicans ATCC 90029 at 20 ug by disk diffusion method. The experiment is classed as functional. As to conditions: read-out: IZ.
Experiment [7] concerns Candida tropicalis. Description: Antimicrobial activity against Candida tropicalis IP 2031 by broth microdilution method. The experiment is classed as functional.
Experiment [8] has as its system Staphylococcus aureus. In words: Antimicrobial activity against Staphylococcus aureus ATCC 6538 by disk diffusion method. The class given is functional.
For experiment [9], the system named is Candida tropicalis. Description: Antimicrobial activity against Candida tropicalis IP 2031 by disk diffusion method. The experiment is classed as functional.
Experiment [10] concerns Candida albicans. Description: Antimicrobial activity against Candida albicans ATCC 90029 by disk diffusion method. The class given is functional, organism-based.
Experiment [11] deals with Staphylococcus aureus. In words: Antimicrobial activity against Staphylococcus aureus ATCC 6538 by broth microdilution method. The experiment is classed as functional. For orientation: Dilution methods test growth across graded concentrations, often in twofold steps.
Experiment [12] deals with Escherichia coli. In words: Antimicrobial activity against Escherichia coli ATCC 10536 by disk diffusion method. The experiment is classed as functional.
Experiment [13] concerns Pseudomonas aeruginosa. Description: Antimicrobial activity against Pseudomonas aeruginosa ATCC 15442 by disk diffusion method. The experiment is classed as functional, organism-based.
Experiment [14] deals with Enterococcus hirae. In words: Antimicrobial activity against Enterococcus hirae ATCC 10541 by disk diffusion method. The experiment is classed as functional, organism-based.
Experiment [15] deals with Candida tropicalis. Description: Antimicrobial activity against Candida tropicalis IP 2031 at 30 ug by disk diffusion method. The class given is functional, organism-based.
Experiment [16] concerns Pseudomonas aeruginosa. In words: Antimicrobial activity against Pseudomonas aeruginosa ATCC 15442 at 30 ug by disk diffusion method. The class given is functional, organism-based.
Experiment [17] deals with Escherichia coli. In words: Antimicrobial activity against Escherichia coli ATCC 10536 at 30 ug by disk diffusion method. The experiment is classed as functional. The following applies: read-out: IZ.
The subject of experiment [18] is Candida albicans. Description: Antimicrobial activity against Candida albicans ATCC 90029 at 30 ug by disk diffusion method. The experiment is classed as functional, organism-based.
Experiment [19] has as its system Enterococcus hirae. In words: Antimicrobial activity against Enterococcus hirae ATCC 10541 at 30 ug by disk diffusion method. The experiment is classed as functional, organism-based.
Experiment [20] deals with Staphylococcus aureus. In words: Antimicrobial activity against Staphylococcus aureus ATCC 6538 at 30 ug by disk diffusion method. The class given is functional, organism-based.
For experiment [21], the system named is Staphylococcus aureus. Description: Antimicrobial activity against Staphylococcus aureus ATCC 6538 at 10 ug by disk diffusion method. The class given is functional. The following applies: read-out: IZ.
Experiment [22] concerns Pseudomonas aeruginosa. Description: Antimicrobial activity against Pseudomonas aeruginosa ATCC 15442 at 10 ug by disk diffusion method. The class given is functional, organism-based.
In experiment [23] the test system is Escherichia coli. In words: Antimicrobial activity against Escherichia coli ATCC 10536 at 10 ug by disk diffusion method. The class given is functional, organism-based.
Experiment [24] concerns Candida albicans. Description: Antimicrobial activity against Candida albicans ATCC 90029 at 10 ug by disk diffusion method. The class given is functional, organism-based.
Experiment [25] relates to Enterococcus hirae. In words: Antimicrobial activity against Enterococcus hirae ATCC 10541 at 10 ug by disk diffusion method. The experiment is classed as functional, organism-based.
The subject of experiment [26] is Candida tropicalis. In words: Antimicrobial activity against Candida tropicalis IP 2031 at 10 ug by disk diffusion method. The experiment is classed as functional, organism-based.

Consider `OC(Cn1cncn1)(Cn1cncn1)c1ccc(F)cc1F` [FLUCONAZOLE], for which the outcome with Pseudomonas aeruginosa [1], with Staphylococcus aureus [2], in the experiment on Enterococcus hirae [3] and in the experiment with Escherichia coli [5] was inactive. Moreover, the results for the zone of inhibition at 20 µg/disc in the experiment with Candida tropicalis [4] and in the experiment with Candida albicans [6] were 21 mm and 18 mm, respectively.

A word on the MIC: it is the least concentration at which growth counts as inhibited. Read a low MIC as a more susceptible organism. With `O=C(CS(=O)(=O)c1ccc(I)cc1)c1ccc([N+](=O)[O-])cc1`, the MIC against Candida tropicalis [7] and against Staphylococcus aureus [11] was above 100 µg/mL throughout. Besides, the “inhibition zone (IZ)” value in the experiment with Staphylococcus aureus [8] was 11 mm. Besides, the outcome with Candida tropicalis [9], with Candida albicans [10], in the experiment on Escherichia coli [12], in the experiment on Pseudomonas aeruginosa [13] and in the experiment on Enterococcus hirae [14] was inactive.

Turning to `O=C(CS(=O)(=O)c1cccc2ccccc12)c1ccc([N+](=O)[O-])cc1`, the MIC in the experiment with Candida tropicalis [7] and against Staphylococcus aureus [11] was above 100 µg/mL in each case. Besides, the “inhibition zone (IZ)” value in the experiment with Staphylococcus aureus [8] was determined as 10 mm; with Candida tropicalis [9], 12 mm. For the same molecule, the result with Candida albicans [10], with Escherichia coli [12], in the experiment with Pseudomonas aeruginosa [13] and with Enterococcus hirae [14] was inactive.

In the case of `O=C(N[C@H](CO)[C@H](O)c1ccc([N+](=O)[O-])cc1)C(Cl)Cl` [CHLORAMPHENICOL], the result in the experiment with Candida tropicalis [15], in the experiment with Pseudomonas aeruginosa [16], in the experiment on Candida albicans [18], in the experiment with Enterococcus hirae [19] and in the experiment with Staphylococcus aureus [20] was inactive. Further, in the experiment with Escherichia coli [17], the zone of inhibition at 30 µg/disc came out at 34 mm.

In the case of `O=C(CS(=O)(=O)c1ccc(F)cc1)c1ccc([N+](=O)[O-])cc1`, the MIC with Candida tropicalis [7] and with Staphylococcus aureus [11] was above 100 µg/mL throughout. Also, the “inhibition zone (IZ)” value in the experiment on Staphylococcus aureus [8] was determined as 25 mm; with Candida tropicalis [9], 19 mm. The outcome with Candida albicans [10], in the experiment on Escherichia coli [12], with Pseudomonas aeruginosa [13] and with Enterococcus hirae [14] was inactive.

In the case of `Cc1ccc(S(=O)(=O)CC(=O)c2ccc([N+](=O)[O-])cc2)cc1`, the MIC in the experiment on Candida tropicalis [7] and in the experiment on Staphylococcus aureus [11] was above 100 µg/mL each time. The “inhibition zone (IZ)” value came to 11 mm with Staphylococcus aureus [8], 22 mm in the experiment with Candida tropicalis [9] and 12 mm in the experiment with Escherichia coli [12]. Also, the outcome in the experiment on Candida albicans [10], in the experiment with Pseudomonas aeruginosa [13] and with Enterococcus hirae [14] was inactive.

With `O=C(c1ccc([N+](=O)[O-])cc1)C(Cc1ccccc1)S(=O)(=O)c1ccccc1` (centres undefined), the result in the experiment on Staphylococcus aureus [8], with Candida tropicalis [9], with Candida albicans [10], in the experiment with Escherichia coli [12], in the experiment with Pseudomonas aeruginosa [13] and with Enterococcus hirae [14] was inactive.

Turning to `O=C(CS(=O)(=O)c1ccc(Cl)cc1)c1ccc([N+](=O)[O-])cc1`, the MIC in the experiment on Candida tropicalis [7] and in the experiment with Staphylococcus aureus [11] was 100 µg/mL (≈ 294 µM) in each case. Besides, the “inhibition zone (IZ)” value in the experiment with Staphylococcus aureus [8] came out at 24 mm; in the experiment with Candida tropicalis [9] it was 19 mm. Also, the result in the experiment on Candida albicans [10], in the experiment with Escherichia coli [12], in the experiment on Pseudomonas aeruginosa [13] and in the experiment on Enterococcus hirae [14] was inactive.

`CN[C@@H]1[C@H](O[C@H]2[C@H](O[C@H]3[C@H](O)[C@@H](O)[C@H](N=C(N)N)[C@@H](O)[C@@H]3N=C(N)N)O[C@@H](C)[C@]2(O)C=O)O[C@@H](CO)[C@H](O)[C@H]1O` [STREPTOMYCIN]: the zone of inhibition at 10 µg/disc in the experiment with Staphylococcus aureus [21] came to 27 mm. Further, the outcome with Pseudomonas aeruginosa [22], with Escherichia coli [23], in the experiment with Candida albicans [24], with Enterococcus hirae [25] and in the experiment with Candida tropicalis [26] was inactive.

Take `Nc1ccc(S(=O)(=O)c2ccc(N)cc2)cc1` [DAPSONE]: the MIC against Candida tropicalis [7] and with Staphylococcus aureus [11] was above 100 µg/mL each time.

With `O=C(CS(=O)(=O)c1ccc([N+](=O)[O-])cc1)c1ccc([N+](=O)[O-])cc1`, the MIC in the experiment on Candida tropicalis [7] and in the experiment on Staphylococcus aureus [11] was 100 µg/mL (≈ 285 µM) throughout. For the same molecule, the results for the “inhibition zone (IZ)” value with Staphylococcus aureus [8] and in the experiment with Candida tropicalis [9] were 28 mm and 12 mm, respectively. The outcome in the experiment on Candida albicans [10], with Escherichia coli [12], in the experiment on Pseudomonas aeruginosa [13] and in the experiment with Enterococcus hirae [14] was inactive.

These data come from ChEMBL document CHEMBL1147845, “Rapid synthesis of sulfone derivatives as potential anti-infectious agents” (2007).
